From US6737383B1, “Herbicidal oxadiazolidines” (priority 1999, dated 2004)

What was measured:
crabgrass = assay: Test A crabgrass; assay type: in vivo, Digitaria spp.; conditions: 0 to 10 scale where 0 is no effect and 10 is complete control
Method in brief: (§1)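 Injury scored visually after about eleven greenhouse days against untreated plants, 0 = no effect, 10 = complete control. Compounds, formulated in surfactant-containing non-phytotoxic solvent, were applied as preemergence soil drench to sandy loam plantings and as postemergence runoff spray at the 1–2 leaf stage.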

morningglory = assay: Test A morningglory; assay type: in vivo, Ipomoea spp.; conditions: 0 to 10 scale where 0 is no effect and 10 is complete control
Method in brief: as §1

velvetleaf = assay: Test A velvetleaf; assay type: in vivo, Abutilon theophrasti; conditions: 0 to 10 scale where 0 is no effect and 10 is complete control
Method in brief: as §1

barnyardgrass = assay: Test A barnyardgrass; assay type: in vivo, Echinochloa crus-galli; conditions: 0 to 10 scale where 0 is no effect and 10 is complete control
Method in brief: as §1

goosegrass = assay: Test D goosegrass; assay type: in vivo, Eleusine indica; conditions: Preemergence, 0 to 100 scale
Source text: (§2) Seeds, tubers, or plant parts of Alexandergrass (Brachiaria plantaginea), bermuda-grass (Cynodon dactylon), common pursiane (Portulaca oleracea), common ragweed (Ambrosia elatior), common groundsel (Senecio vulgaris), dallisgrass (Paspalum dilatatum), goosegrass (Eleusine indica), guineagrass (Panicum maximum), itchgrass (Rottboellia exaltata), Johnson grass (Sorghum halepense), large crabgrass (Digitaria sanguinalis), pitted morningglory (Ipomoea lacunosa), purple nutsedge (Cyperus rotundus), sandbur (Cenchrus echinatus), sourgrass (Trichachne insularis), Spanishneedles (Bidens bipinnata), surinam grass (Brachiaria decumbens) and tall mallow (Malva sylvestris) were planted into greenhouse pots of flats containing greenhouse planting medium. Plant species were grown in separate pots or individual compartments. Preemergence applications were made within one day of planting the seed or plant part.
(§3) Test chemicals were formulated in a non-phytotoxic solvent mixture which included a surfactant and applied preemergence to the surface of the pot containing seeds in a sandy loam soil. Untreated control pots and treated pots were placed in the greenhouse for growth and visually evaluated for injury 14 to 21 days after herbicide application. Plant response ratings, summarized in Table C, are based on a 0 to 100 scale where 0 is no injury and 100 is complete control. A dash (−) response means no test result.

common pursiane = assay: Test D common purslane; assay type: in vivo, Portulaca oleracea; conditions: Preemergence, 0 to 100 scale
Source text: as §2, §3

sandbur = assay: Test D sandbur; assay type: in vivo, Cenchrus echinatus; conditions: Preemergence, 0 to 100 scale
Method in brief: (§4)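 Greenhouse pots, seeds in sandy loam; compounds formulated in non-phytotoxic solvent with surfactant; preemergence treatments went on the soil surface within one day of planting. Injury rated visually 14 to 21 days after application on a 0 (none) to 100 (complete control) scale.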

bermuda-grass = assay: Test D bermudagrass; assay type: in vivo, Cynodon dactylon; conditions: Preemergence, 0 to 100 scale
Method in brief: as §4

Spanishneedles = assay: Test D Spanishneedles; assay type: in vivo, Bidens bipinnata; conditions: Preemergence, 0 to 100 scale
Method in brief: as §4

surinam grass = assay: Test D surinam grass; assay type: in vivo, Brachiaria decumbens; conditions: Preemergence, 0 to 100 scale
Source text: as §2, §3

itchgrass = assay: Test D itchgrass; assay type: in vivo, Rottboellia exaltata; conditions: Preemergence, 0 to 100 scale
Method in brief: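 Scoring used a 0–100 visual injury scale, with 0 meaning no effect and 100 complete control, assessed 14–21 days after application alongside untreated pots. Preemergence treatments went onto sandy loam surfaces of separately potted seeds within a day of sowing.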

dallisgrass = assay: Test D dallisgrass; assay type: in vivo, Paspalum dilatatum; conditions: Preemergence, 0 to 100 scale
Source text: as §2, §3

large crabgrass = assay: Test D large crabgrass; assay type: in vivo, Digitaria sanguinalis; conditions: Preemergence, 0 to 100 scale
Method in brief: as §4

pitted morningglory = assay: Test D pitted morningglory; assay type: in vivo, Ipomoea lacunosa; conditions: Preemergence, 0 to 100 scale
Source text: as §2
as §3, with “Plant response ratings, summarized in Table C, are based on a 0 to 100 scale where 0 is no injury and 100 is complete control.” left out

common groundsel = assay: Test D common groundsel; assay type: in vivo, Senecio vulgaris; conditions: Preemergence, 0 to 100 scale
Method in brief: as §4

tall mallow = assay: Test D tall mallow; assay type: in vivo, Malva sylvestris; conditions: Preemergence, 0 to 100 scale
Source text: as §2, §3

guineagrass = assay: Test D guineagrass; assay type: in vivo, Panicum maximum; conditions: Preemergence, 0 to 100 scale
Source text: as §2, §3

[1] = Rate 32 g/ha, 0 no injury, 100 complete control
[2] = Rate 64 g/ha, 0 no injury, 100 complete control
[3] = Rate 125 g/ha, 0 no injury, 100 complete control
[4] = Rate 16 g/ha, 0 no injury, 100 complete control

Compound: CCN(CC)C(=O)n1oc(=O)n(-c2ccc(F)cc2)c1=O [Compound 3]
- Plant response rating, Crabgrass (crabgrass; Postemergence, Rate 1000 g/ha): 0
- Plant response rating, Crabgrass (crabgrass; Pre-emergence, Rate 2000 g/ha): 3
- Plant response rating, Morningglory (morningglory; Postemergence, Rate 1000 g/ha): 0
- Plant response rating, Morningglory (morningglory; Pre-emergence, Rate 2000 g/ha): 0
- Plant response rating, Velvetleaf (velvetleaf; Postemergence, Rate 1000 g/ha): 0
- Plant response rating, Velvetleaf (velvetleaf; Pre-emergence, Rate 2000 g/ha): 0
- Plant response rating, Barnyardgrass (barnyardgrass; Postemergence, Rate 1000 g/ha): 6
- Plant response rating, Barnyardgrass (barnyardgrass; Pre-emergence, Rate 2000 g/ha): 9

Compound: Cc1ccc(-n2c(=O)on(C(=O)N(c3ccc(F)cc3F)C(C)C)c2=O)c(C)c1 [Compound 24]
- Plant response rating, Goosegrass (goosegrass; [1]): 50
- Plant response rating, Goosegrass (goosegrass; [2]): 50
- Plant response rating, Goosegrass (goosegrass; [3]): 98
- Plant response rating, Goosegrass (goosegrass; Rate 250 g/ha): 98
- Plant response rating, Goosegrass (goosegrass; Rate 500 g/ha): 100
- Plant response rating, C. purslane (common pursiane; [1]): 0
- Plant response rating, C. purslane (common pursiane; [2]): 0
- Plant response rating, C. purslane (common pursiane; [3]): 0
- Plant response rating, C. purslane (common pursiane; Rate 250 g/ha): 0
- Plant response rating, C. purslane (common pursiane; Rate 500 g/ha): 0
- Plant response rating, Sandbur (sandbur; [1]): 20
- Sandbur plant response rating (sandbur; [2]): 20
- Sandbur plant response rating (sandbur; [3]): 20
- Plant response rating, Sandbur (sandbur; Rate 250 g/ha): 20
- Plant response rating, Sandbur (sandbur; Rate 500 g/ha): 100
- Plant response rating, Bermudagrass (bermuda-grass; [1]): 75
- Plant response rating, Bermudagrass (bermuda-grass; [2]): 95
- Plant response rating, Bermudagrass (bermuda-grass; [3]): 98
- Plant response rating, Bermudagrass (bermuda-grass; Rate 250 g/ha): 100
- Plant response rating, Bermudagrass (bermuda-grass; Rate 500 g/ha): 100
- Plant response rating, Spanishneedles (Spanishneedles; [1]): 0
- Spanishneedles plant response rating (Spanishneedles; [2]): 0
- Spanishneedles plant response rating (Spanishneedles; [3]): 0
- Plant response rating, Spanishneedles (Spanishneedles; Rate 500 g/ha): 0
- Plant response rating, Surinam grass (surinam grass; [1]): 10
- Surinam grass plant response rating (surinam grass; [2]): 10
- Surinam grass plant response rating (surinam grass; [3]): 10
- Plant response rating, Surinam grass (surinam grass; Rate 250 g/ha): 10
- Plant response rating, Surinam grass (surinam grass; Rate 500 g/ha): 65
- Plant response rating, Itchgrass (itchgrass; [1]): 40
- Plant response rating, Itchgrass (itchgrass; [2]): 40
- Plant response rating, Itchgrass (itchgrass; [3]): 40
- Plant response rating, Itchgrass (itchgrass; Rate 250 g/ha): 40
- Plant response rating, Itchgrass (itchgrass; Rate 500 g/ha): 40
- Plant response rating, Dallisgrass (dallisgrass; [1]): 30
- Plant response rating, Dallisgrass (dallisgrass; [2]): 30
- Plant response rating, Dallisgrass (dallisgrass; [3]): 98
- Plant response rating, Dallisgrass (dallisgrass; Rate 250 g/ha): 98
- Plant response rating, Dallisgrass (dallisgrass; Rate 500 g/ha): 100
- Plant response rating, Large crabgrass (large crabgrass; [1]): 70
- Plant response rating, Large crabgrass (large crabgrass; [2]): 70
- Plant response rating, Large crabgrass (large crabgrass; [3]): 100
- Plant response rating, Large crabgrass (large crabgrass; Rate 250 g/ha): 100
- Plant response rating, Large crabgrass (large crabgrass; Rate 500 g/ha): 100
- Plant response rating, P. morninglory (pitted morningglory; [1]): 0
- Plant response rating, P. morninglory (pitted morningglory; [2]): 0
- Plant response rating, P. morninglory (pitted morningglory; [3]): 0
- Plant response rating, P. morninglory (pitted morningglory; Rate 250 g/ha): 0
- Plant response rating, P. morninglory (pitted morningglory; Rate 500 g/ha): 0
- Plant response rating, Com. groundsel (common groundsel; [1]): 0
- Plant response rating, Com. groundsel (common groundsel; [2]): 0
- Plant response rating, Com. groundsel (common groundsel; [3]): 0
- Plant response rating, Com. groundsel (common groundsel; Rate 250 g/ha): 0
- Plant response rating, Com. groundsel (common groundsel; Rate 500 g/ha): 0
- Plant response rating, Tall Mallow (tall mallow; [1]): 0
- Tall Mallow plant response rating (tall mallow; [2]): 0
- Tall Mallow plant response rating (tall mallow; [3]): 0
- Plant response rating, Tall Mallow (tall mallow; Rate 250 g/ha): 0
- Plant response rating, Tall Mallow (tall mallow; Rate 500 g/ha): 0
- Plant response rating, Guineagrass (guineagrass; [1]): 60
- Plant response rating, Guineagrass (guineagrass; [2]): 75
- Plant response rating, Guineagrass (guineagrass; [3]): 90
- Plant response rating, Guineagrass (guineagrass; Rate 250 g/ha): 98
- Plant response rating, Guineagrass (guineagrass; Rate 500 g/ha): 100

Compound: CC(C)N(C(=O)n1oc(=O)n(C(C)C)c1=O)c1ccccc1 [Compound 113]
- Plant response rating, Goosegrass (goosegrass; [4]): 90
- Plant response rating, Goosegrass (goosegrass; [1]): 100
- Plant response rating, Goosegrass (goosegrass; [2]): 100
- Plant response rating, Goosegrass (goosegrass; [3]): 100
- Plant response rating, C. purslane (common pursiane; [4]): 0
- Plant response rating, C. purslane (common pursiane; [1]): 0
- Plant response rating, C. purslane (common pursiane; [2]): 0
- Plant response rating, C. purslane (common pursiane; [3]): 0
- Plant response rating, Sandbur (sandbur; [4]): 0
- Plant response rating, Sandbur (sandbur; [1]): 65
- Sandbur plant response rating (sandbur; [2]): 75
- Sandbur plant response rating (sandbur; [3]): 100
- Plant response rating, Bermudagrass (bermuda-grass; [4]): 98
- Plant response rating, Bermudagrass (bermuda-grass; [1]): 100
- Plant response rating, Bermudagrass (bermuda-grass; [2]): 100
- Plant response rating, Bermudagrass (bermuda-grass; [3]): 100
- Plant response rating, Spanishneedles (Spanishneedles; [4]): 0
- Plant response rating, Spanishneedles (Spanishneedles; [1]): 0
- Spanishneedles plant response rating (Spanishneedles; [2]): 0
- Spanishneedles plant response rating (Spanishneedles; [3]): 0
- Plant response rating, Surinam grass (surinam grass; [4]): 85
- Plant response rating, Surinam grass (surinam grass; [1]): 90
- Surinam grass plant response rating (surinam grass; [2]): 98
- Surinam grass plant response rating (surinam grass; [3]): 100
- Plant response rating, Itchgrass (itchgrass; [4]): 10
- Plant response rating, Itchgrass (itchgrass; [1]): 40
- Plant response rating, Itchgrass (itchgrass; [2]): 50
- Plant response rating, Itchgrass (itchgrass; [3]): 60
- Plant response rating, Dallisgrass (dallisgrass; [4]): 0
- Plant response rating, Dallisgrass (dallisgrass; [1]): 95
- Plant response rating, Dallisgrass (dallisgrass; [2]): 100
- Plant response rating, Dallisgrass (dallisgrass; [3]): 100
- Plant response rating, Large crabgrass (large crabgrass; [4]): 85
- Plant response rating, Large crabgrass (large crabgrass; [1]): 100
- Plant response rating, Large crabgrass (large crabgrass; [2]): 100
- Plant response rating, Large crabgrass (large crabgrass; [3]): 100
- Plant response rating, P. morninglory (pitted morningglory; [4]): 10
- Plant response rating, P. morninglory (pitted morningglory; [1]): 10
- Plant response rating, P. morninglory (pitted morningglory; [2]): 10
- Plant response rating, P. morninglory (pitted morningglory; [3]): 10
- Plant response rating, Com. groundsel (common groundsel; [4]): 0
- Plant response rating, Com. groundsel (common groundsel; [1]): 65
- Plant response rating, Com. groundsel (common groundsel; [2]): 100
- Plant response rating, Com. groundsel (common groundsel; [3]): 100
- Plant response rating, Tall Mallow (tall mallow; [4]): 0
- Plant response rating, Tall Mallow (tall mallow; [1]): 0
- Tall Mallow plant response rating (tall mallow; [2]): 0
- Tall Mallow plant response rating (tall mallow; [3]): 30
- Plant response rating, Guineagrass (guineagrass; [4]): 85
- Plant response rating, Guineagrass (guineagrass; [1]): 100
- Plant response rating, Guineagrass (guineagrass; [2]): 100
- Plant response rating, Guineagrass (guineagrass; [3]): 100

Compound: C=CCn1c(=O)on(C(=O)N(c2ccc(F)cc2F)C2CC2)c1=O [Compound 127]
- Plant response rating, Crabgrass (crabgrass; Postemergence, Rate 1000 g/ha): 7
- Plant response rating, Crabgrass (crabgrass; Pre-emergence, Rate 2000 g/ha): 8
- Plant response rating, Morningglory (morningglory; Postemergence, Rate 1000 g/ha): 0
- Plant response rating, Morningglory (morningglory; Pre-emergence, Rate 2000 g/ha): 0
- Plant response rating, Velvetleaf (velvetleaf; Postemergence, Rate 1000 g/ha): 0
- Plant response rating, Velvetleaf (velvetleaf; Pre-emergence, Rate 2000 g/ha): 0
- Plant response rating, Barnyardgrass (barnyardgrass; Postemergence, Rate 1000 g/ha): 6
- Plant response rating, Barnyardgrass (barnyardgrass; Pre-emergence, Rate 2000 g/ha): 9
